ChEMBL document CHEMBL1139128, “Structure-activity relationship analysis of a novel necroptosis inhibitor, Necrostatin-5” (Bioorg Med Chem Lett, 2007)
The source made the active and inactive calls. The rule behind the calls is not given here.

System: Jurkat
Experiment: Inhibition of TNF-alpha-induced necroptosis in FADD-deficient Jurkat T cells
Type: functional, cell-based, Homo sapiens
Design: Activity: concentration or dose not given beside the values
Conditions: for EC50: Jurkat

| Structure (SMILES) | Activity [%] | EC50 (Homo sapiens) [µM] | Activity (Homo sapiens) |
| --- | --- | --- | --- |
| Cc1sc2nc(SCC#N)n(-c3ccc(OC(F)(F)F)cc3)c(=O)c2c1C | 63 | 3.7 | – |
| CSc1nc2sc3c(c2c(=O)n1-c1ccc(F)cc1)CCC3 | 95 | 3 | – |
| COc1ccc(-n2c(SC)nc3sc4c(c3c2=O)CCCC4)cc1OC | 54.5 | 16.7 | – |
| CCc1sc2nc(SCC#N)n(-c3ccc(OC)cc3)c(=O)c2c1C | 86.8 | 5.26 | – |
| CCc1c(C)sc2nc(SCC#N)n(-c3ccc4c(c3)OCO4)c(=O)c12 | 100 | 1.9 | – |
| C=CCSc1nc2sc3c(c2c(=O)n1-c1ccc(OC)cc1)CCCC3 | – | – | inactive |
| CSc1nc2sc3c(c2c(=O)n1-c1ccc(Cl)c(Cl)c1)CCCC3 | – | – | inactive |
| COc1ccc(-n2c(SCC#N)nc3sc4c(c3c2=O)CCCC4)cc1OC | 57 | 5.7 | – |
| CCc1cc2c(=O)n(-c3ccc(OC)cc3)c(SCC#N)nc2s1 | – | – | inactive |
| C#CCSc1nc2sc(C)c(C)c2c(=O)n1-c1ccc(OC)cc1 | 90.3 | 4.86 | – |
| CCSc1nc2sc3c(c2c(=O)n1-c1ccccc1)CCCCC3 | – | – | inactive |
| CSc1nc2sc(C)c(C)c2c(=O)n1-c1ccc(OCc2ccccc2)cc1 | – | – | inactive |
| CSc1nc2sc3c(c2c(=O)n1-c1ccc(Br)cc1)CCCC3 | – | – | inactive |
| COc1ccc(-n2c(SC)nc3sc4c(c3c2=O)CCC4)cc1 | 97 | 0.24 | – |
| C#CCSc1nc2sc3c(c2c(=O)n1-c1ccc(OC)cc1)CCCC3 | 80.7 | 6.08 | – |
| CCSc1nc2sc(C)c(C)c2c(=O)n1-c1ccc(OC)cc1 | – | – | inactive |
| COc1ccc(-n2c(SCc3ccc(C)cc3)nc3sc4c(c3c2=O)CCCC4)cc1 | – | – | inactive |
| CCc1c(C)sc2nc(SC)n(-c3ccc4c(c3)OCO4)c(=O)c12 | – | – | inactive |
| C#CCSc1nc2sc3c(c2c(=O)n1-c1ccc(OC)cc1)CCCCC3 | – | – | inactive |
| CSc1nc2sc3c(c2c(=O)n1-c1ccc(OC(F)(F)F)cc1)CCCC3 | – | – | inactive |
| CSc1nc2sc3c(c2c(=O)n1-c1ccc(OCc2ccccc2)cc1)CCCC3 | – | – | inactive |
| C=CCSc1nc2sc3c(c2c(=O)n1-c1ccccc1)CCCC3 | – | – | inactive |
| N#CCSc1nc2sc3c(c2c(=O)n1-c1ccccc1)CCC3 | – | – | inactive |
| COc1ccc(-n2c(SCC(C)=O)nc3sc4c(c3c2=O)CCCC4)cc1 | – | – | inactive |
| C#CCSc1nc2scc(C)c2c(=O)n1-c1ccc(OC)cc1 | – | – | inactive |
| N#CCSc1nc2sc3c(c2c(=O)n1-c1ccc(Cl)cc1)CCCC3 | 55 | 8.5 | – |

| Structure (SMILES) | Activity [%] | EC50 (Homo sapiens) [µM] | Activity (Homo sapiens) |
| --- | --- | --- | --- |
| COc1ccc(-n2c(SCC#N)nc3sc4c(c3c2=O)CC(C)CC4)cc1 (stereo unspecified) | – | – | inactive |
| Cc1sc2nc(SCC#N)n(-c3ccc(F)cc3)c(=O)c2c1C | 87.6 | 4.43 | – |
| COc1ccc(-n2c(SCC#N)nc3sc4c(c3c2=O)CCCC4)c(OC)c1 | – | – | inactive |
| Cc1sc2nc(SCC#N)n(-c3ccc(N(C)C)cc3)c(=O)c2c1C | – | – | inactive |
| C=CCSc1nc2sc3c(c2c(=O)n1-c1ccc(OC)cc1)CCC3 | – | – | inactive |
| COc1ccc(-n2c(SCC#N)nc3sc4c(c3c2=O)CC(C)CC4)cc1OC (stereo unspecified) | – | – | inactive |
| COc1ccc(-n2c(SC)nc3sc4c(c3c2=O)CCCC4)c(OC)c1 | – | – | inactive |
| CSc1nc2sc3c(c2c(=O)n1-c1ccc(F)cc1)CCCCC3 | – | – | inactive |
| CSc1nc2sc3c(c2c(=O)n1-c1ccc(C)c(C)c1)CC(C)CC3 (stereo unspecified) | – | – | inactive |
| COc1ccc(-n2c(SC[N+](=O)[O-])nc3sc4c(c3c2=O)CCC4)cc1 | – | – | inactive |
| CCOc1ccc(-n2c(SC)nc3sc4c(c3c2=O)CCC4)cc1 | – | – | inactive |
| COc1ccc(-n2c(SCC#N)nc3sc4ccccc4c3c2=O)cc1 | 83.3 | 0.18 | – |
| CCCCCSc1nc2sc3c(c2c(=O)n1-c1ccc(OC)cc1)CCCC3 | – | – | inactive |
| C#CCSc1nc2sccc2c(=O)n1-c1ccc(OC)cc1 | – | – | inactive |
| CCCSc1nc2sc3c(c2c(=O)n1-c1ccc(OC)cc1)CCCC3 | – | – | inactive |
| COc1ccc(-n2c(SC(C)=O)nc3sc4c(c3c2=O)CCCC4)cc1 | – | – | inactive |
| CSc1nc2sc3ccccc3c2c(=O)n1-c1ccc(F)cc1 | – | 3.06 | – |
| CCc1sc2nc(SC)n(-c3ccc(OC)cc3)c(=O)c2c1C | – | – | inactive |
| COc1ccc(-n2c(SCc3ccccc3)nc3sc4c(c3c2=O)CCCC4)cc1 | – | – | inactive |
| N#CCSc1nc2sc3c(c2c(=O)n1-c1ccc(Br)cc1)CCCC3 | – | – | inactive |
| CSc1nc2sc3c(c2c(=O)n1-c1ccc(Cl)cc1C)CCCC3 | – | – | inactive |
| COc1ccc(-n2c(SC)nc3sc(C(C)C)c(C)c3c2=O)cc1 | – | – | inactive |
| N#CCSc1nc2sc3c(c2c(=O)n1-c1ccc(OC(F)(F)F)cc1)CCCC3 | – | – | inactive |
| Cc1ccc(-n2c(SCC#N)nc3sc4c(c3c2=O)CC(C)CC4)cc1C (stereo unspecified) | 38 | 16.7 | – |
| COc1ccc(-n2c(SCC#N)nc3sc4c(c3c2=O)CCCC4)cc1 | 100 | 0.24 | – |
| CSc1nc2sc3ccccc3c2c(=O)n1-c1ccc(OC(F)(F)F)cc1 | – | – | inactive |

| Structure (SMILES) | Activity [%] | EC50 (Homo sapiens) [µM] | Activity (Homo sapiens) |
| --- | --- | --- | --- |
| CCSc1nc2sc3c(c2c(=O)n1-c1ccc(OC)cc1)CCCCC3 | – | – | inactive |
| CCCC(=O)Sc1nc2sc3c(c2c(=O)n1-c1ccc(OC)cc1)CCCC3 | – | – | inactive |
| CCc1c(C)sc2nc(SC)n(-c3ccc(OC)cc3)c(=O)c12 | – | – | inactive |
| COc1ccc(-n2c([S+](C)[O-])nc3sc4c(c3c2=O)CCCC4)cc1 (stereo unspecified) | – | – | inactive |
| CSc1nc2sc3c(c2c(=O)n1-c1ccc2c(c1)OCO2)CCC3 | – | – | inactive |
| COc1ccc(-n2c(SCC#N)nc3sccc3c2=O)cc1 | – | – | inactive |
| CCOc1ccc(-n2c(SC)nc3sc4ccccc4c3c2=O)cc1 | – | – | inactive |
| CCOc1ccc(-n2c(SC)nc3sc(C)c(C)c3c2=O)cc1 | – | – | inactive |
| COc1ccc(-n2c(SCC#N)nc3sc(C(C)C)c(C)c3c2=O)cc1 | – | – | inactive |
| COc1ccc(-n2c(SCC(C)O)nc3sc4c(c3c2=O)CCCC4)cc1 (stereo unspecified) | – | – | inactive |
| CSc1nc2sc3ccccc3c2c(=O)n1-c1ccc2c(c1)OCO2 | – | – | inactive |
| N#CCSc1nc2sc3c(c2c(=O)n1-c1ccc(F)c(F)c1)CCCC3 | – | – | inactive |
| CSc1nc2sc(C)c(C)c2c(=O)n1-c1ccc2c(c1)OCO2 | 67 | 1.11 | – |
| CCc1c(C)sc2nc(SCCO)n(-c3ccc4c(c3)OCO4)c(=O)c12 | – | – | inactive |
| C#CCSc1nc2sc(CC)c(C)c2c(=O)n1-c1ccc(OC)cc1 | – | – | inactive |
| CCOc1ccc(-n2c(SCC#N)nc3sc(C)c(C)c3c2=O)cc1 | 97 | 7.77 | – |
| COc1ccc(-n2c(S(C)(=O)=O)nc3sc4c(c3c2=O)CCCC4)cc1 | – | – | inactive |
| CCCCSc1nc2sc3c(c2c(=O)n1-c1ccc(OC)cc1)CCC3 | – | – | inactive |
| COc1ccc(-n2c(SC)nc3sc4c(c3c2=O)CC(C)CC4)cc1 (stereo unspecified) | – | – | inactive |
| Cc1ccc(-n2c(SCC#N)nc3sc4c(c3c2=O)CCCC4)cc1C | 45 | 16.7 | – |
| CCCCCCCCCCCCCCc1sc2nc(SC)n(-c3ccc(OC)cc3)c(=O)c2c1C | – | – | inactive |
| CCCc1sc2nc(SCC#N)n(-c3ccc(OC)cc3)c(=O)c2c1C | – | – | inactive |
| N#CCSc1nc2sc3ccccc3c2c(=O)n1-c1ccc(OC(F)(F)F)cc1 | – | – | inactive |
| Cc1sc2nc(SCC#N)n(-c3ccc4c(c3)OCCO4)c(=O)c2c1C | 100 | 0.25 | – |
| COc1ccc(-n2c(SC)nc3sc4c(c3c2=O)CN(C(C)C)CC4)cc1 | – | – | inactive |
| COc1ccc(-n2c(SCC#N)nc3sc4c(c3c2=O)CN(C(C)C)CC4)cc1 | – | – | inactive |
